# Source: article PMC7870626, “Neurotoxicity and underlying cellular changes of 21 mitochondrial respiratory chain inhibitors” (Archives of Toxicology, 2021)
# “Also recorded” adds a separate entry of the source.
# How the values were obtained:
# LUHMES cells [1] = assay: Intracellular ATP content after NeuriTox exposure; assay type: cell-based; conditions: Homo sapiens; NeuriTox exposure scheme, 24 h; read-out: LUHMES 24 h EC25 ATP (converted)
# Description: (§1) The NeuriTox test was performed as previously described (Delp et al. [2018b]; Krug et al. [2013a]; Stiegler et al. [2011]). Briefly, cells differentiated for 48 h were re-seeded into 96-well plates at a density of 100,000 cells/cm^2 in DM without cAMP and GDNF, and treated 1 h after seeding for 24 h. Subsequently, multiple endpoints were determined, e.g., neurite outgrowth (i.e., NeuriTox test), resazurin reduction, intracellular ATP content, gene expression levels from TempO-Seq analysis, and proteasomal activity. For the 120 h exposure scenario, LUHMES cells were differentiated for another 3 days after reseeding before they were treated on day 5 (d5) and d7 by a half medium exchange. Endpoints were determined on d10 of differentiation.
# Plates from the NeuriTox test were further used after imaging for determination of alternative endpoints. Intracellular ATP was determined as described earlier (Delp et al. [2019]). In brief, CellTiterGlo 2.0 assay mix (Promega) containing luciferase was added after imaging, and luminescence was recorded. For the determination of resazurin reduction, a 10 × resazurin stock solution was added after imaging to the medium (final resazurin concentration 2 µg/ml) (Delp et al. [2018a]). After 60 min incubation, resazurin fluorescence was recorded (ex: 530 nm, em: 590 nm). Background-corrected data was used for further analysis.
# LUHMES cells [2] = assay: LUHMES 120 h exposure scenario, neurite effects; assay type: cell-based, human
# Description: as §1
# (§2) Image acquisition and analysis was performed as described previously (Krug et al. [2013a]; Schildknecht et al. [2013]; Stiegler et al. [2011]). In brief, cells were live-stained with 1 µg/ml Hoechst H-33342 and 1 µM calcein-AM and image acquisition was done by an automated high content imager (Cellomics, Waltham, MA, USA). Cell viability was determined as ratio of live cells (cell bodies being Calcein- and Hoechst-positive) relative to the total amount of cells (Hoechst-positive cell bodies). Neurite area was calculated by subtracting the somatic area (Hoechst-positive area plus surrounding) from the calcein-positive area.
# SH-SY5Y cells [3] = assay: Mitochondrial membrane potential (rhodamine 123), KE2 assay; assay type: cell-based, human; conditions: Homo sapiens, SH-SY5Y, 24 h, read-out: pEC25 MMP (concentration where MMP was reduced by 25%)
# Description: Cells were plated at a cell density of 29,500 cells/cm^2 and handled as described above for the neurite SH-SY5Y degeneration. On d6 of differentiation, 50% of the medium was replaced by differentiation medium containing 2 µM Rhodamine 123 (ThermoFisher). After 45 min of preloading at 37 °C with 5% CO2 in darkness, the Rhodamine 123 solution was completely removed and cells were carefully washed once with 200 µl DMEM:F12. Subsequently, 50 µl differentiation medium per well were added followed by the addition of 50 µl/well of test compounds in medium. After 24 h of exposure to the test compounds, the nuclei were stained for 30 min with 20 µL of a solution containing 20 µM Hoechst 33342, and the images were then acquired with a 10 × objective lens using the ImageXpress® Micro (Molecular Devices) high content microplate imager. Nuclei were evaluated in the DAPI channel (excitation 377 ± 50 nm, emission 447 ± 60 nm), whereas Rhodamine 123 fluorescence was detected in the FITC channel (excitation 475 ± 34 nm, emission 536 ± 40 nm). Analysis of the Hoechst 33,342 and Rhodamine 123 fluorescence was performed using the MetaXpress® Software (Molecular Devices) with the Transfluor HT plug-in and the parameters nuclei (for Hoechst-33342) and integrated granule intensity (for Rhodamine 123). Mitochondrial membrane potential (MMP) was quantified as the total fluorescence intensity of Rhodamine 123 in relation to the number of Hoechst-stained nuclei.
# LUHMES cells [4] = assay: NeuriTox test: neurite area and viability, 24 h; assay type: cell-based, human; conditions: Homo sapiens
# Description: as §1, §2
# U2OS cells = assay: cells; assay type: cell-based; conditions: Homo sapiens, U2OS, 24 h, read-out: Cytotox EC25 U2OS
# Description: A cell suspension of 100,000 cells/ml was prepared in assay medium, and white 384-well plates were filled with 30 µl/well cell suspension. Twenty-four hours after seeding, a dilution series of test compound, as well as positive and negative controls, were added to the cells. After 24 h exposure, the medium was removed, and 10 µl of Triton X-100 lysis buffer was added to each well. The luminescent signal was determined in a luminometer by injecting BDS Illuminate Mix and measuring the light emission. The Cytotox CALUX cell line constitutively expresses a high level of luciferase protein; the light emission is therefore proportional to the cell number of live cells, and its decrease can be used as measure of cytotoxicity. The light emission generated by cells exposed to vehicle control was set to 100%, and the luminescence of cells exposed to the positive control toxicant tributyltin acetate [100 µM] was set to 0%. The light output of the cells exposed to different concentrations of test compounds was scaled accordingly.
# SH-SY5Y cells [5] = assay type: cell-based, human; conditions: 120 h exposure, up to 10 µM
# Description: The cells are able to form neurites and display several dopaminergic characteristics. […] Differentiation was initiated 24 h later (on day 0, d0) by exchange to 100 µl/well differentiation medium (DMEM:F12, supplemented with 1 µM all-trans retinoic acid (RA), 1 × N2 supplement, 2 mM L-glutamine, 100 µg/ml streptomycin, and 100 U/ml penicillin). All media and supplements were obtained from Gibco (ThermoFisher) except from RA (Sigma).
# On d3, 100 µl of fresh differentiation medium were added to the wells. For the 120 h exposure, this medium contained twice the final treatment concentration. On d6, 100 µl from each well were removed, and the procedure was repeated and the cells were analyzed on d8. For the 24 h exposure, cells received an addition of 100 µl pure differentiation medium on d3 and were treated with compounds as described above on d6 for 24 h before analysis. […] The cells were incubated with the stain mixture for 20 min at 37 °C, 5% CO2. After incubation, 130 µL of differentiation medium were added to all the wells to stop further staining of the cells. Images were obtained using ImageXpress® Micro (Molecular Devices). […] The mean neurite length was calculated using the Neurite Outgrowth plug-in in the MetaXpress® Software. Outgrowths were defined as cytoplasmic prolongations with a maximum width of 2 µm (3 pixels). The minimum outgrowth size needed to be logged as significant was defined as 15 µm (23 pixels).
compound,measurement,setting,value
Cc1nn(C)c(Oc2ccccc2)c1C=NOCc1ccc(C(=O)OC(C)(C)C)cc1 [Fenpyroximate],EC25,LUHMES cells [1],12.6 µM
same,"Increase in sensitivity of neurite EC25, 120 h versus 24 h exposure",LUHMES cells [2],five-to-eightfold
same,EC25,SH-SY5Y cells [3],0.794 µM
same,EC25,"LUHMES cells [4]; NeuriTox exposure scheme, 24 h, read-out: LUHMES 24 h EC25 NA (neurite area) (converted)",15.8 µM
same,EC25,"LUHMES cells [4]; NeuriTox exposure scheme, 24 h, read-out: LUHMES 24 h EC25 V (viability) (converted)",39.8 µM
same,EC25,"LUHMES cells [4]; NeuriTox test, neurite outgrowth impairment, LUHMES 24 h, read-out: EC25 KE4 (AO) Neurite toxicity (converted)",15.8 µM
same,EC25,U2OS cells,> 50.1 µM
same,Neurite degeneration (in words),SH-SY5Y cells [5],degeneration of neurites; also recorded: increased neurite degeneration
same,Reduction in viability,SH-SY5Y cells [5],> 25%
